According to ChEMBL document CHEMBL1201862, “PubChem BioAssay data set” (2004):
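Five compound concentrations were applied to cells in 96-well plates for 48 hours; endpoints were derived by simple linear interpolation of the resulting dose-response curve. GI50 is the concentration that inhibits growth by half.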 Activity calls are given as the source filed them. Rule as the data show it: active = GI50 up to about 1.1 µM and inactive = higher.

Columns and labels:
Assay in all cases: NCI anticancer screen, dose series, 48 h
[1] = system: BT-549
[2] = system: DU-145
[3] = system: HL-60
[4] = system: HOP-92
[5] = system: Hs-578T
[6] = system: K562
[7] = system: MCF7
[8] = system: MDA-MB-231
[9] = system: MDA-MB-435
[10] = system: MDA-N
[11] = system: NCI/ADR-RES
[12] = system: OVCAR-5
[13] = system: PC-3
[14] = system: RPMI-8226
[15] = system: SNB-19
[16] = system: SR
[17] = system: T47D
[18] = system: 786-0
[19] = system: A498
[20] = system: A549
[21] = system: ACHN
[22] = system: CAKI-1
[23] = system: CCRF-CEM
[24] = system: COLO 205
[25] = system: EKVX
[26] = system: HCC 2998
[27] = system: HCT-116
[28] = system: HCT-15
[29] = system: HOP-62
[30] = system: HT-29
[31] = system: IGROV-1
[32] = system: KM12
[33] = system: LOX IMVI
[34] = system: M14
[35] = system: MOLT-4
[36] = system: Malme-3M
[37] = system: NCI-H226
[38] = system: NCI-H23
[39] = system: NCI-H460
[40] = system: NCI-H522
[41] = system: OVCAR-3
[42] = system: OVCAR-4
[43] = system: OVCAR-8
[44] = system: RXF 393
[45] = system: SF-268
[46] = system: SF-295
[47] = system: SF-539
[48] = system: SK-MEL-28
[49] = system: SK-MEL-2
[50] = system: SK-MEL-5
[51] = system: SK-OV-3
[52] = system: SN12C
[53] = system: SNB-75
[54] = system: SW-620
[55] = system: TK-10
[56] = system: U-251
[57] = system: UACC-257
[58] = system: UACC-62
[59] = system: UO-31

## C=C1C(=O)O[C@H]2C3OC3(C)CC/C=C(/C(=O)OC)[C@@H](OC(C)=O)[C@H](OC(=O)C3(C)OC3C)[C@H]12 (some centres not stated)
[1]
  GI50: 1.04 µM (active)
[2]
  GI50: 13.6 µM (inactive)
[3]
  GI50: 0.196 µM (active)
[4]
  GI50: 1.61 µM (inactive)
[5]
  GI50: 7.8 µM (inactive)
[6]
  GI50: 0.299 µM (active)
[7]
  GI50: 1.12 µM (active)
[8]
  GI50: 2.07 µM (inactive)
[9]
  GI50: 2.05 µM (inactive)
[10]
  GI50: 1.65 µM (inactive)
[11]
  GI50: 3.73 µM (inactive)
[12]
  GI50: 2.94 µM (inactive)
[13]
  GI50: 2.17 µM (inactive)
[14]
  GI50: 0.297 µM (active)
[15]
  GI50: > 7.5 µM (inactive)
[16]
  GI50: 186 nM (active)
[17]
  GI50: 0.989 µM (active)

## O=S1(=O)OCCOS(=O)(=O)C1C1c2ccccc2-c2ccccc21
[18]
  GI50: 20 µM (inactive)
[19]
  GI50: > 100 µM (inactive)
[20]
  GI50: 40.8 µM (inactive)
[21]
  GI50: 27.2 µM (inactive)
[1]
  GI50: 48.8 µM (inactive)
[22]
  GI50: 29.7 µM (inactive)
[23]
  GI50: 16.4 µM (inactive)
[24]
  GI50: 70.5 µM (inactive)
[2]
  GI50: 37.3 µM (inactive)
[25]
  GI50: 42.8 µM (inactive)
[26]
  GI50: 29 µM (inactive)
[27]
  GI50: 28.6 µM (inactive)
[28]
  GI50: 35.4 µM
[3]
  GI50: 15.5 µM (inactive)
[29]
  GI50: 29.3 µM (inactive)
[4]
  GI50: > 100 µM (inactive)
[30]
  GI50: 34 µM (inactive)
[5]
  GI50: 44.9 µM (inactive)
[31]
  GI50: 23.5 µM (inactive)
[6]
  GI50: 31.3 µM (inactive)
[32]
  GI50: 41.5 µM (inactive)
[33]
  GI50: 14.8 µM (inactive)
[34]
  GI50: 38.3 µM (inactive)
[7]
  GI50: 39 µM (inactive)
[8]
  GI50: > 100 µM (inactive)
[9]
  GI50: 33.6 µM (inactive)
[10]
  GI50: 36.7 µM (inactive)
[35]
  GI50: 15.6 µM (inactive)
[36]
  GI50: 56.2 µM (inactive)
[37]
  GI50: 26 µM (inactive)
[38]
  GI50: 28.7 µM (inactive)
[39]
  GI50: 11.4 µM (inactive)
[40]
  GI50: 20.7 µM (inactive)
[11]
  GI50: 25.7 µM (inactive)
[41]
  GI50: 47 µM (inactive)
[42]
  GI50: 23 µM (inactive)
[12]
  GI50: 72.3 µM (inactive)
[43]
  GI50: 50.8 µM (inactive)
[13]
  GI50: 90.4 µM (inactive)
[14]
  GI50: 28.6 µM (inactive)
[44]
  GI50: 50.9 µM (inactive)
[45]
  GI50: 28.9 µM (inactive)
[46]
  GI50: 29 µM (inactive)
[47]
  GI50: 22.8 µM (inactive)
[48]
  GI50: 67.6 µM (inactive)
[49]
  GI50: 70.3 µM (inactive)
[50]
  GI50: 28.7 µM (inactive)
[51]
  GI50: 40.3 µM (inactive)
[52]
  GI50: 48.6 µM (inactive)
[15]
  GI50: 38.5 µM (inactive)
[53]
  GI50: 2.41 µM (inactive)
[54]
  GI50: 26.9 µM (inactive)
[17]
  GI50: 93.8 µM (inactive)
[55]
  GI50: > 100 µM (inactive)
[56]
  GI50: 20.7 µM (inactive)
[57]
  GI50: 36.4 µM (inactive)
[58]
  GI50: 21.7 µM (inactive)
[59]
  GI50: 28.7 µM (inactive)

## CCCCCCCCCCCC(=O)OCC(O)CO (configuration not stated) [GLYCEROL MONOLAURATE]
[18]
  GI50: > 100 µM (inactive)
[19]
  GI50: > 100 µM (inactive)
[20]
  GI50: 54.1 µM (inactive)
[21]
  GI50: > 100 µM (inactive)
[1]
  GI50: 36.4 µM (inactive)
[22]
  GI50: > 100 µM (inactive)
[23]
  GI50: 42.7 µM (inactive)
[24]
  GI50: > 100 µM (inactive)
[2]
  GI50: > 100 µM (inactive)
[25]
  GI50: > 100 µM (inactive)
[27]
  GI50: > 100 µM (inactive)
[28]
  GI50: > 100 µM
[3]
  GI50: 12.9 µM (inactive)
[29]
  GI50: > 100 µM (inactive)
[4]
  GI50: > 100 µM (inactive)
[30]
  GI50: 31.2 µM (inactive)
[5]
  GI50: > 100 µM (inactive)
[32]
  GI50: 20.4 µM (inactive)
[33]
  GI50: 48.1 µM (inactive)
[34]
  GI50: 69.7 µM (inactive)
[7]
  GI50: > 100 µM (inactive)
[8]
  GI50: > 100 µM (inactive)
[9]
  GI50: 61.4 µM (inactive)
[10]
  GI50: 88.9 µM (inactive)
[35]
  GI50: 37.1 µM (inactive)
[37]
  GI50: > 100 µM (inactive)
[38]
  GI50: 67.3 µM (inactive)
[39]
  GI50: 80.5 µM (inactive)
[40]
  GI50: > 100 µM (inactive)
[11]
  GI50: > 100 µM (inactive)
[41]
  GI50: 76.9 µM (inactive)
[42]
  GI50: > 100 µM (inactive)
[12]
  GI50: > 100 µM (inactive)
[43]
  GI50: > 100 µM (inactive)
[13]
  GI50: > 100 µM (inactive)
[45]
  GI50: > 100 µM (inactive)
[46]
  GI50: > 100 µM (inactive)
[47]
  GI50: > 100 µM (inactive)
[48]
  GI50: > 100 µM (inactive)
[49]
  GI50: > 100 µM (inactive)
[50]
  GI50: 59 µM (inactive)
[51]
  GI50: > 100 µM (inactive)
[52]
  GI50: > 100 µM (inactive)
[15]
  GI50: > 100 µM (inactive)
[53]
  GI50: > 100 µM (inactive)
[54]
  GI50: > 100 µM (inactive)
[17]
  GI50: 69.3 µM (inactive)
[55]
  GI50: > 100 µM (inactive)
[56]
  GI50: 71.3 µM (inactive)
[57]
  GI50: > 100 µM (inactive)
[58]
  GI50: > 100 µM (inactive)
[59]
  GI50: 71.9 µM (inactive)
